How the values were obtained:
Coagulation factor VII = target: T1, Coagulation factor VII (Homo sapiens, UniProt P08709); test: Inhibitory concentration against Coagulation factor VIIa
T1 sequence (P08709 whole entry): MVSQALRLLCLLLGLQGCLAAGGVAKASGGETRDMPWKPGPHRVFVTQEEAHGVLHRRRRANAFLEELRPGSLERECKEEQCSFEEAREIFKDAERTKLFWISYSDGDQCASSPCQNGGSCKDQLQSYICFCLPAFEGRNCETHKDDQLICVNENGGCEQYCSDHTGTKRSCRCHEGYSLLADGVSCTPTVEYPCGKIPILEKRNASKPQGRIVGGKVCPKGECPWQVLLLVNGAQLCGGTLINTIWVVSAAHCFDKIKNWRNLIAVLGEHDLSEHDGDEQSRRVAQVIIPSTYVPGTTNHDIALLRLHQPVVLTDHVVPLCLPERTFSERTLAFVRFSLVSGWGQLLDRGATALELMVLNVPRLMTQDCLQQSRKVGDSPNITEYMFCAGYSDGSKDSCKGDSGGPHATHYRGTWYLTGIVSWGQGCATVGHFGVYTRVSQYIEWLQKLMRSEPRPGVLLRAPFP

[1] = Inhibitory concentration against Trypsin
[2] = Inhibitory concentration against Coagulation factor Xa
[3] = Inhibitory concentration against Factor IIa

Row | Structure (SMILES) | IC50 (Coagulation factor VII) | IC50 [1] | IC50 [2] | IC50 [3]
1 | CC[C@@H](C)NC(=O)c1cc(N)cc(-c2cnc(NC(C)C)c(=O)n2CC(=O)NCc2ccc(C(=N)N)cc2C(=O)NCCN2CCOCC2)c1 | 0.02 µM | 0.021 µM | > 30 µM | 16.7 µM
2 | CC[C@@H](C)NC(=O)c1cc(N)cc(-c2cnc(NC(C)C)c(=O)n2CC(=O)NCc2ccc(C(=N)N)cc2)c1 | 0.0017 µM | 0.015 µM | > 30 µM | 6.1 µM
3 | CC[C@@H](C)NC(=O)c1cc(N)cc(-c2cnc(NC(C)C)c(=O)n2CC(=O)NCc2ccc(C(=N)N)cc2C(=O)Nc2ccncc2)c1 | – | 0.028 µM | > 30 µM | > 30 µM
4 | CC[C@@H](C)NC(=O)c1cc(N)cc(-c2cnc(NC(C)C)c(=O)n2CC(=O)NCc2ccc(C(=N)N)cc2C(=O)NCC(=O)O)c1 | 0.021 µM | 0.016 µM | > 30 µM | > 30 µM
5 | CC[C@@H](C)NC(=O)c1cc(N)cc(-c2cnc(NC(C)C)c(=O)n2CC(=O)NCc2ccc(C(=N)N)cc2C(N)=O)c1 | 0.0062 µM | 0.02 µM | > 30 µM | 13.7 µM
6 | CC[C@@H](C)NC(=O)c1cc(N)cc(-c2cnc(NC(C)C)c(=O)n2CC(=O)NCc2ccc(C(=N)N)cc2C(=O)O)c1 | 0.152 µM | 0.05 µM | > 30 µM | > 30 µM
7 | CC[C@@H](C)NC(=O)c1cc(N)cc(-c2cnc(NC(C)C)c(=O)n2CC(=O)NCc2ccc(C(=N)N)cc2C(=O)NCC(=O)OC)c1 | 0.023 µM | 0.031 µM | > 30 µM | 26.7 µM
8 | CC[C@@H](C)NC(=O)c1cc(N)cc(-c2cnc(NC(C)C)c(=O)n2CC(=O)NCc2ccc(C(=N)N)cc2C(=O)NCC(F)(F)F)c1 | 0.012 µM | 0.015 µM | > 30 µM | 22.6 µM
